The values that follow are results of earlier work, collected in PMC3975045 (ACS medicinal chemistry letters, 2013).

The subject of the data set is OX1 and OX2.

[Ala^11,D-Leu^15]orexin B: the “selectivity for OX2 over OX1” value is on record as 400 fold.
